Measured values taken from publication PMC8557901 (Microbiology Spectrum, 2021).
Where two headings read alike, the source gives them in different places.

Experiments:
[1] = tested on: P. yoelii in mice and Anopheles stephensi; assay: In vivo transmission-blocking mosquito feeding assay; settings: for No. of mosquitoes infected/total no. of mosquitoes (%): untreated 82.8; for No. of oocysts per mosquito: untreated 106; for Mean % parasitemia ± SD: day 4 p.i. in mice prior to mosquito feeding, untreated 0.97 ± 0.17; for Mean % gametocytemia ± SD: day 4 p.i. in mice, untreated 0.05 ± 0.004
Protocol: Experimental mice were infected by i.p. inoculations of 10^7 erythrocytes parasitized with P. yoelii GOMO 15 to test the effect of M1 following two different protocols of drug treatment. Infected mice were randomly allocated into 6 groups (5 mice per group) corresponding to the 3 conditions (control [solvent], M1 50 mg/kg, and PQ 50 mg/kg) in both drug administration protocols. For the first protocol, mice were treated daily from day zero to day 3, while for the second protocol, treatment was administered only once, 4 days after the infection and 2 h before mosquito feeding ([37]). At day 3 p.i., the presence and maturity of gametocytes was checked by microscopic examination of Giemsa-stained thin blood films and live-blood observation to assess microgamete exflagellation density. Mice were then anesthetized and placed according to the treatment on the top of individual cages containing 100 glucose-starved Anopheles stephensi female mosquitoes, which were allowed to feed for 1 h. Unfed mosquitoes were removed from the cages. Seven days after the infectious blood meal, 30 mosquitoes were dissected and their midguts examined using a phase-contrast microscope (400×) to assess the presence of oocysts. Two weeks after the blood meal, the salivary glands of 30 mosquitos were dissected to estimate the average number of sporozoites per mosquito in each group.

[2] = tested on: P. falciparum F32-ART5 (artemisinin-resistant); assay: Standard in vitro chemosensitivity assay (hypoxanthine uptake), F32-ART5; assay type: cell-based; settings: Plasmodium falciparum, F32, 48 h, read-out: Mean EC50 ± SD
Protocol: The Plasmodium falciparum artemisinin-resistant strain F32-ART5 and its twin artemisinin-sensitive line F32-TEM ([30], [31]) were cultivated at 37°C with 5% CO2 in human red blood cells (EFS [French Blood Bank]) diluted to 2% hematocrit in RPMI 1640 medium supplemented with 5% human serum (EFS) as previously reported ([47]).
In vitro susceptibility of P. falciparum parasites was determined by using the standard hypoxanthine uptake inhibition assay as described previously ([51]) with some modifications ([52]). After D-sorbitol treatment, parasites synchronized at the ring stage were exposed for 48 h, with [^3H]hypoxanthine (Perkin Elmer, France), to a range of concentrations of the different tested compounds. […] Each result represents 3 independent experiments.

HepG2 or CHO cell lines = tested on: HepG2 or CHO cell lines; design: method as in PMID 25791675; settings: cited from earlier work
[3] = tested on: P. falciparum sporozoites invading primary human hepatocytes; assay: Hepatocyte invasion by preincubated P. falciparum sporozoites; settings: Plasmodium falciparum, Hepatocyte, in Homo sapiens, sporozoites preincubated 1 h; for inhibition at 1 µM: read-out: inhibition of invasion of sporozoites into hepatocytes, 1 μM; for inhibition at 10 µM: read-out: inhibition of invasion of sporozoites into hepatocytes, 10 μM; for inhibition at 100 µM: read-out: inhibition of invasion of sporozoites into hepatocytes, 100 μM
Protocol: On the day of infection, 3 · 10^4 sporozoites of P. falciparum, P. yoelii, and P. cynomolgi were added to their respective host cell cultures (human, murine, and simian). The infected culture plates were centrifuged for 10 min at 900 × g, allowing fast parasite sedimentation, and further incubated with serial dilutions of M1. Culture medium containing the appropriate drug concentration was refreshed daily, and cells were fixed at 48 h postinfection (p.i.) for infections with P. yoelii, 6 days p.i. for P. falciparum, or 8 days p.i. for P. cynomolgi. For the in vitro sporozoite invasion experiments, P. falciparum sporozoites were preincubated with 1, 10, and 100 μM M1 for 1 h at room temperature before hepatocyte infections. Three hours later, after sporozoite penetration into hepatocytes, cultures were washed and then further incubated with or without the presence of the drug during 6 days. DMSO was used as a negative control.
The number, size, and shape of the parasites were determined using a CellInsight high-content screening platform equipped with Studio HCS software (ThermoFisher Scientific). […] Host cell and parasite nuclei were labeled with DAPI (4′,6-diamidino-2-phenylindole). […] The custom script used for counting and measuring parasites first required identification of the objects based on a fluorescence intensity threshold. The object identity was then further validated based on size and morphological (shape) criteria. The presence of DAPI-associated fluorescence in the selected objects allowed their final selection and the rejection of false positives. […] The parasitic size reduction was calculated on the average object area using the total surface area of each selected object (μm^2).

[4] = 50 mg/kg i.p. every day D0 to D3
[5] = 50 mg/kg i.p. on day 3, 2 h before feeding
[6] = cultures additionally treated until day 6
[7] = cultures then without drug for 6 days

## Cc1ccc(-c2cc3nc(NC(C)(C)C)[nH]c(=O)c3s2)cc1 [Metabolite M1, 2-(tert-Butylamino)-6-(p-tolyl)thieno[3,2-d]pyrimidin-4(3H)-one]
[1]; 50 mg/kg during D0 to D3, day 4
  reduction in parasitemia before mosquito feeding: 50%
[1]; [4]
  No. of mosquitoes infected/total no. of mosquitoes (%): 25/35 (71.4) %
  No. of oocysts per mosquito: 32
  Mean % parasitemia ± SD: 0.47 ± 0.24%
  Mean % gametocytemia ± SD: 0.04 ± 0.009%
[1]; [5]
  No. of mosquitoes infected/total no. of mosquitoes (%): 13/35 (37.1) %
  No. of oocysts per mosquito: 1
  Mean % parasitemia ± SD: 0.99 ± 0.34%
  Mean % gametocytemia ± SD: 0.04 ± 0.01%
[2]
  EC50: 227 ± 40 nM
HepG2 or CHO cell lines
  CC50: ≥ 25000 nM
[3]; [6]
  inhibition at 1 µM: 80%
  inhibition at 10 µM: 100%
  inhibition at 100 µM: 100%
[3]; [7]
  inhibition at 1 µM: 30%
  inhibition at 10 µM: 60%
  inhibition at 100 µM: ~100%
